# Reference: patent US8735406B2, “8-oxodihydropurine derivative” (Dainippon Sumitomo Pharma Co., Ltd., priority 2009, dated 2014)
# Like-named read-outs stand apart in the source and are kept apart here.
# Target: T1, FAAH (Rattus norvegicus, UniProt P97612)
# T1 construct: Preparation of Rat Brain Membranes Preparations (FAAH Enzyme Solution); from tissue; host or cells: rat cerebrum (brain membrane preparation)
# T1 sequence (P97612 1-579): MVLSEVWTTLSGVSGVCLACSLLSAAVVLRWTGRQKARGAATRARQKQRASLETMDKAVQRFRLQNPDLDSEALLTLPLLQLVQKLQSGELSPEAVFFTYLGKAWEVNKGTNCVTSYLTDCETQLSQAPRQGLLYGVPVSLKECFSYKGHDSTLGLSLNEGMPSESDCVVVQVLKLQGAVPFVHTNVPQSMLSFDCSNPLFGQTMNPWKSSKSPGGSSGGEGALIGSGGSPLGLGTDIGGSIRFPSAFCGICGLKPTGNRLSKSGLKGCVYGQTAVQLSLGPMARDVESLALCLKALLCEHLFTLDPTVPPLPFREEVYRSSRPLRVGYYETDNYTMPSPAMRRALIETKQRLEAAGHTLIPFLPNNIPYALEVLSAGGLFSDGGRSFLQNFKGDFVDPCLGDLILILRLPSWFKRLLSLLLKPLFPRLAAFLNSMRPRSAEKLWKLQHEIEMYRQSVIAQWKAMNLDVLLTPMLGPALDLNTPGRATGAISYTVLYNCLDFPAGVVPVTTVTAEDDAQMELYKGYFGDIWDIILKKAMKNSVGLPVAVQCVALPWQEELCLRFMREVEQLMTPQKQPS
# Test: Determination of FAAH inhibitory activity in rat (rat brain membrane preparations, [3H]-anandamide hydrolysis)
# Format: biochemical
# Conditions: rat brain membrane preparations; for IC50: read-out: FAAH Inhibition IC50
# How it was run: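 Rat cerebrum membranes (100 μg/mL protein) preincubated 10 min at 37 °C with compound (1% DMSO) in pH 7.6 Tris buffer with 1.5% BSA. Substrate 2 nM [3H]-anandamide plus 2 μM anandamide added for 10 min at 37 °C. [3H]-ethanolamine in the aqueous phase after chloroform/methanol extraction was scintillation counted; IC50 over 0.1 nM–1 μM.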
# [1] = 100 nM test substance, read-out: FAAH Inhibition, Inhibition Rate at 100 nM
# [2] = at 100 nM, read-out: FAAH Inhibition Inhibition Rate at 100 nM
Compound,inhibition at 0.1 µM [1],IC50 (test substance 0.1 nM to 1 μM),inhibition at 0.1 µM [2],IC50
"COc1cccc(-c2ncc3c(n2)n(C)c(=O)n3C(=O)N2CCN(c3ccc(Cl)cc3)CC2)c1 [Example 142, 7-{[4-(4-Chlorophenyl)piperazin-1-yl]carbonyl}-2-(3-methoxyphenyl)-9-methyl-7,9-dihydro-8H-purine-8-one]",99%,0.005 µM,,
CN(C)C(=O)n1c(=O)n(C)c2cnc(-c3ccc(Cl)cc3)nc21 [compound 329],95%,0.012 µM,,
"Cn1c(=O)n(C(=O)N2CCN(c3ccccc3Cl)CC2)c2cnc(-c3ccccc3)nc21 [Example 127, 7-{[4-(2-Chlorophenyl)piperazin-1-yl]carbonyl}-9-methyl-2-phenyl-7,9-dihydro-8H-purine-8-one]",94%,0.05 µM,,
Cn1c(=O)n(C(=O)N2CCCC2)c2nc(Cc3ccccc3)ncc21 [compound 285],66%,0.077 µM,,
Cn1c(=O)n(C(=O)N2CCCC2)c2cnc(-c3cc4ccccc4o3)nc21 [Example 216],99%,0.007 µM,,
"COc1cccc(-c2ncc3c(n2)n(C)c(=O)n3C(=O)N2CCCCC2)c1 [Example 49, 2-(3-Methoxyphenyl)-9-methyl-7-(piperidin-1-ylcarbonyl)-7,9-dihydro-8H-purine-8-one]",99%,0.006 µM,,
CCc1ncc2c(n1)n(C(=O)N1CC(c3ccccc3)C1)c(=O)n2C [Example 634],,,95%,0.098 µM
CCOc1cc(F)cc(-c2ncc3c(n2)n(C)c(=O)n3C(=O)N2CCCC2)c1 [compound 193],102%,0.042 µM,,
Cn1c(=O)n(C(=O)N2CCC2)c2nc(CCc3ccc4c(c3)CCO4)ncc21 [Example 620],,,87%,0.088 µM
CCN(C)C(=O)n1c(=O)n(C)c2nc(C3CC3)ncc21 [Example 159],61%,0.081 µM,,
"COc1ccc(F)c(-c2ncc3c(n2)n(C)c(=O)n3C(=O)N2CCCC2)c1 [Example 200, 2-(2-Fluoro-5-methoxyphenyl)-9-methyl-7-(pyrrolidin-1-ylcarbonyl)-7,9-dihydro-8H-purine-8-one]",97%,0.03 µM,,
"COc1cccc(CN(C)C(=O)n2c(=O)n(C)c3nc(-c4cccc(OC)c4)ncc32)c1 [Example 73, N-(3-Methoxybenzyl)-2-(3-methoxyphenyl)-N,9-dimethyl-8-oxo-8,9-dihydro-7H-purine-7-carboxamide]",89%,0.045 µM,,

# Further lines, results first:
inhibition at 0.1 µM [1],IC50 (test substance 0.1 nM to 1 μM),inhibition at 0.1 µM [2],IC50,Compound
96%,0.01 µM,,,Cc1cc(C)c(CCc2ncc3c(n2)n(C(=O)N2CCC2)c(=O)n3C)c(C)c1 [compound 566]
69%,0.062 µM,,,COCc1ncc2c(n1)n(C)c(=O)n2C(=O)N1CC(c2cccc(C)c2)C1 [compound 444]
102%,< 0.001 µM,,,"CN(CCc1ccc(Cl)cc1)C(=O)n1c(=O)n(C)c2nc(Cc3ccccc3)ncc21 [Example 158, 2-Benzyl-N-[2-(4-chlorophenyl)ethyl]-N,9-dimethyl-8-oxo-8,9-dihydro-7H-purine-7-carboxamide]"
74%,0.033 µM,,,"CN(C)C(=O)n1c(=O)n(C)c2cnc(-c3cccc(OCC(F)F)c3)nc21 [Example 335, 2-[3-(2,2-Difluoroethoxy)phenyl]-N,N,7-trimethyl-8-oxo-7,8-dihydro-9H-purine-9-carboxamide]"
83%,0.021 µM,,,"CN(C)C(=O)n1c(=O)n(C)c2cnc(-c3ccc(C(F)(F)F)cc3F)nc21 [Example 338, 2-[2-Fluoro-4-(trifluoromethyl)phenyl]-N,N,7-trimethyl-8-oxo-7,8-dihydro-9H-purine-9-carboxamide]"
84%,0.006 µM,,,CN(C)C(=O)n1c(=O)n(C)c2cnc(CCc3cccc(OCC4CC4)c3)nc21 [compound 519]
